Data set [1] concerns Human immunodeficiency virus. As to the kind of experiment: Antiviral activity against wild type HIV. The class given is functional, organism-based. The following applies: Human immunodeficiency virus 1.
The nature of data set [2]: Cytotoxicity against human MT2 cells. The class given is cell-based.
A short description of data set [3]: Inhibition of wild type HIV reverse transcriptase. More on the design: species or system Human immunodeficiency virus.
Data set [4] deals with Human immunodeficiency virus. In words: Antiviral activity against HIV with reverse transcriptase K65R mutation in MT-2 cells assessed as fold resistance relative to wild type.
The test system of data set [5] is Human immunodeficiency virus. As to the kind of experiment: Antiviral activity against HIV with reverse transcriptase M184V mutation in MT-2 cells assessed as fold resistance relative to wild type.
Data set [6] relates to Human immunodeficiency virus. As to the kind of experiment: Antiviral activity against HIV with reverse transcriptase 6TAMs mutation in MT-2 cells assessed as fold resistance relative to wild type.

As a reminder, the EC50 is the midpoint of the concentration-response curve. In general, CC50 refers to the concentration giving 50% cytotoxicity. Usually IC50 stands for the midpoint of a concentration-inhibition curve.

As for `Cc1cn([C@H]2C=C[C@@H](OCP(=O)(O)O)O2)c(=O)[nH]c1=O`, the response in data set [1] was half-maximal at 26 µM (EC50). The same compound gave a CC50 in data set [2] of over 1000 µM. Besides, inhibition in data set [3] was half-maximal at 0.39 µM (IC50). In addition, the results for the Activity in data set [4], in data set [5] and in data set [6] were 5.2, 1.1 and 12.7, respectively.
The compound `Cc1cn([C@H]2CC[C@@H](OCP(=O)(O)O)O2)c(=O)[nH]c1=O` returned an EC50 in data set [1] of over 200 µM. Half-maximal inhibition in data set [3] (IC50) was put at 5.4 µM.
In turn, `O=c1ccn([C@H]2C=C[C@@H](OCP(=O)(O)OP(=O)(O)OP(=O)(O)O)O2)c(=O)[nH]1` registered an IC50 in data set [3] of 0.55 µM.
On the same count and under the same terms, under `Nc1ncnc2c1ncn2[C@H]1C=C[C@@H](OCP(=O)(O)OP(=O)(O)OP(=O)(O)O)O1` stands 0.14 µM.
As to `O=c1[nH]c(=O)n([C@H]2C=C[C@@H](OCP(=O)(O)O)O2)cc1F`, the concentration giving a half-maximal response (EC50) in data set [1] is over 200 µM.
As to `O=c1[nH]c(=O)n([C@H]2C=C[C@@H](OCP(=O)(O)O)O2)cc1Cl`, the EC50 in data set [1] was 28.5 µM. This compound also returned a CC50 in data set [2] of 413 µM. Also, the Activity is given as 6.7 in data set [4], 0.8 in data set [5] and over 10 in data set [6].
As to `Nc1ccn([C@H]2C=C[C@@H](OCP(=O)(O)O)O2)c(=O)n1`, in data set [1], the concentration for a half-maximal effect (EC50) is over 200 µM.
`Nc1ncnc2c1ncn2[C@H]1CO[C@@H](OCP(=O)(O)O)C1`: the half-maximal effective concentration (EC50) in data set [1] was 9.5 µM. This compound registered a CC50 in data set [2] of 863 µM. Also, inhibition in data set [3] was half-maximal at 0.32 µM (IC50). Besides, the Activity in data set [4] came out at 2.2; in data set [5], 11; in data set [6] it was 3.2.
For `O=c1ccn([C@H]2CC[C@@H](OCP(=O)(O)O)O2)c(=O)[nH]1`, the EC50 in data set [1] was over 200 µM.
The compound `Nc1ncnc2c1ncn2[C@H]1CC[C@@H](OCP(=O)(O)O)O1` returned a concentration for a half-maximal effect (EC50) in data set [1] of 12 µM. For the same compound, in data set [2], the CC50 was over 1000 µM. The same compound registered an IC50 in data set [3] of 4.1 µM. In addition, the Activity stood at 4.9 in data set [4], 1.1 in data set [5] and 3.4 in data set [6].
On to `O=c1[nH]c(=O)n([C@H]2C=C[C@@H](OCP(=O)(O)O)O2)cc1Br`, for which the concentration giving a half-maximal response (EC50) in data set [1] came out at 15 µM. For the same compound, the CC50 in data set [2] amounted to 935 µM. Further, the Activity in data set [4] is on record as 7.5; in data set [5], 1.3; in data set [6], over 10.
Compound `Cc1cn([C@H]2C=C[C@@H](OCP(=O)(O)OP(=O)(O)OP(=O)(O)O)O2)c(=O)[nH]c1=O` registered an IC50 in data set [3] of 0.06 µM.
The compound `Nc1ncnc2c1ncn2[C@H]1CC[C@@H](OCP(=O)(O)OP(=O)(O)OP(=O)(O)O)O1` returned an IC50 in data set [3] of 0.26 µM.
Compound `Nc1ncnc2c1ncn2[C@H]1C=C[C@@H](OCP(=O)(O)O)O1` came in with an EC50 in data set [1] of 2.1 µM. In data set [2], this compound gave a CC50 of over 1000 µM. For the same compound, the IC50 in data set [3] was 0.6 µM. In addition, the Activity was determined as 2.9 in data set [4], 0.9 in data set [5] and 2.9 in data set [6].
`Nc1ncnc2c1ncn2[C@H]1C=C[C@@H](OCP(=O)(O)O)C1` came in with a concentration giving a half-maximal response (EC50) in data set [1] of 51.7 µM.
For the compound `O=c1ccn([C@H]2C=C[C@@H](OCP(=O)(O)O)O2)c(=O)[nH]1`, in data set [1], the concentration giving a half-maximal response (EC50) is over 200 µM. Also, the CC50 in data set [2] is over 1000 µM. For the same compound, the IC50 in data set [3] turned out to be 5.7 µM.
For `Nc1nc(NC2CC2)c2ncn([C@H]3C=C[C@@H](CO)C3)c2n1` (single isomer, unassigned) [ABACAVIR], a half-maximal response in data set [1] (EC50) required 0.32 µM. In data set [2], this compound had a cytotoxic concentration (CC50) of 190 µM. In data set [3], this compound gave a 50% inhibitory concentration (IC50) of 0.13 µM. Also, the Activity is 3.8 in data set [4], 7.1 in data set [5] and 5.7 in data set [6].
`C[C@H](Cn1cnc2c(N)ncnc21)OCP(=O)(O)O` [TENOFOVIR ANHYDROUS] showed a concentration for a half-maximal effect (EC50) in data set [1] of 3.6 µM. For the same compound, the CC50 in data set [2] was over 1000 µM. This compound also showed an IC50 in data set [3] of 0.38 µM. Further, the Activity in data set [4] was found to be 4.3; in data set [5], 0.7; in data set [6], 8.8.

Values taken from ChEMBL document CHEMBL1142218, “Synthesis, anti-HIV activity, and resistance profiles of ribose modified nucleoside phosphonates” (Bioorg Med Chem Lett, 2007).
